# Measurements: ChEMBL document CHEMBL1123770, “Systematic synthesis and biological evaluation of alpha- and beta-D-lyxofuranosyl nucleosides of the five naturally occurring nucleic acid bases” (1987)
# Legend:
# Vero [1] = assay: Minimum inhibitory concentration (MIC) required to reduce virus-induced cytopathogenicity by 50% against Coxsackie virus B4 in African green monkey kidney (Vero B)cells; assay type: functional, Chlorocebus sabaeus; details: Chlorocebus sabaeus; read-out: MIC
# Vero [2] = assay: Minimum inhibitory concentration (MIC) required to reduce virus-induced cytopathogenicity by 50% against Parainfluenza virus-3 in African green monkey kidney (Vero B)cells; assay type: functional, Chlorocebus sabaeus; details: Chlorocebus sabaeus; read-out: MIC
# Vero [3] = assay: Minimum inhibitory concentration (MIC) required to reduce virus-induced cytopathogenicity by 50% against forest virus in African green monkey kidney (Vero B)cells; assay type: functional; details: Chlorocebus sabaeus
# WI-38 [4] = assay: Minimum cytotoxic concentration (MCC) required to cause a microscopically detectable alteration of host cell morphology, when incubated with WI-38 cells; assay type: functional; details: Homo sapiens
# HeLa [5] = assay: Minimum cytotoxic concentration (MCC) required to cause a microscopically detectable alteration of host cell morphology, when incubated with HeLa cells; assay type: functional; details: Homo sapiens
# WI-38 [6] = assay: Minimum inhibitory concentration (MIC) required to reduce virus-induced cytopathogenicity by 50% against Rhinovirus 9 in human diploid (WI-38)cells; assay type: functional; details: Homo sapiens; read-out: MIC
# Vero [7] = assay: Minimum inhibitory concentration (MIC) required to reduce virus-induced cytopathogenicity by 50% against Reo virus-1 in African green monkey kidney (Vero B)cells; assay type: functional, Chlorocebus sabaeus; details: Chlorocebus sabaeus; read-out: MIC
# Vero [8] = assay: Minimum cytotoxic concentration (MCC) required to cause a microscopically detectable alteration of host cell morphology, when incubated with Vero B cells; assay type: functional; details: Chlorocebus sabaeus
# Vero [9] = assay: Minimum inhibitory concentration (MIC) required to reduce virus-induced cytopathogenicity by 50% against Sindbis virus in African green monkey kidney (Vero B)cells; assay type: functional; details: Chlorocebus sabaeus
# WI-38 [10] = assay: Minimum inhibitory concentration (MIC) required to reduce virus-induced cytopathogenicity by 50% against Rhinovirus-1A in human diploid (WI-38)cells; assay type: functional
# Oryctolagus cuniculus [11] = species: Oryctolagus cuniculus; assay: Minimum inhibitory concentration (MIC) required to reduce virus-induced cytopathogenicity by 50% against G strain of Herpes simplex virus-2 in primary rabbit kidney cells; assay type: functional; details: Oryctolagus cuniculus; read-out: MIC
# HeLa [12] = assay: Minimum inhibitory concentration (MIC) required to reduce virus-induced cytopathogenicity by 50% against Coxsackie virus B4 in HeLa cells; assay type: functional; details: Homo sapiens
# [13] = Minimum cytotoxic concentration (MCC) required to cause a microscopically detectable alteration of host cell morphology, when incubated with PRK cells; assay type: functional; details: Oryctolagus cuniculus
# Oryctolagus cuniculus [14] = species: Oryctolagus cuniculus; assay: Minimum inhibitory concentration (MIC) required to reduce virus-induced cytopathogenicity by 50% against KOS strain of Herpes simplex virus-1 in primary rabbit kidney cells; assay type: functional
# Oryctolagus cuniculus [15] = species: Oryctolagus cuniculus; assay: Minimum inhibitory concentration (MIC) required to reduce virus-induced cytopathogenicity by 50% against Vaccinia virus in primary rabbit kidney cells; assay type: functional; details: Oryctolagus cuniculus; read-out: MIC
structure (smiles),measurement,setting,value
Cc1cn([C@H]2O[C@H](CO)[C@H](O)[C@@H]2O)c(=O)[nH]c1=O,MIC,Vero [1],> 400 mg/L
same,MIC,Vero [2],> 400 mg/L
same,MIC,Vero [3],> 400 mg/L
same,MCC,WI-38 [4],> 400 µg/mL
same,MCC,HeLa [5],> 400 µg/mL
same,MIC,WI-38 [6],> 400 mg/L
same,MIC,Vero [7],> 200 mg/L
same,MCC,Vero [8],> 400 µg/mL
same,MIC,Vero [9],> 400 mg/L
same,MIC,WI-38 [10],> 400 mg/L
same,MIC,Oryctolagus cuniculus [11],> 400 mg/L
same,MIC,HeLa [12],> 400 mg/L
same,MCC,[13],> 400 µg/mL
same,MIC,Oryctolagus cuniculus [14],> 400 mg/L
Nc1ccn([C@H]2O[C@H](CO)[C@H](O)[C@@H]2O)c(=O)n1,MIC,Vero [1],> 400 mg/L
same,MIC,Vero [2],> 400 mg/L
same,MIC,Vero [3],> 400 mg/L
same,MCC,WI-38 [4],> 400 µg/mL
same,MCC,HeLa [5],> 400 µg/mL
same,MIC,WI-38 [6],> 400 mg/L
same,MIC,Vero [7],> 400 mg/L
same,MCC,Vero [8],> 400 µg/mL
same,MIC,Vero [9],> 400 mg/L
same,MIC,WI-38 [10],> 400 mg/L
same,MIC,Oryctolagus cuniculus [11],> 400 mg/L
same,MIC,HeLa [12],> 400 mg/L
same,MCC,[13],> 400 µg/mL
same,MIC,Oryctolagus cuniculus [14],> 400 mg/L
Nc1nc2c(ncn2[C@@H]2O[C@H](CO)[C@H](O)[C@@H]2O)c(=O)[nH]1,MIC,Vero [1],> 400 mg/L
same,MIC,Vero [2],> 400 mg/L
same,MIC,Vero [3],> 400 mg/L
same,MCC,WI-38 [4],> 400 µg/mL
same,MCC,HeLa [5],> 400 µg/mL
same,MIC,WI-38 [6],> 400 mg/L
same,MIC,Vero [7],> 400 mg/L
same,MIC,Oryctolagus cuniculus [15],100 mg/L
same,MCC,Vero [8],> 400 µg/mL
same,MIC,Vero [9],> 400 mg/L
same,MIC,WI-38 [10],> 400 mg/L
same,MIC,Oryctolagus cuniculus [11],400 mg/L
same,MIC,HeLa [12],> 400 mg/L
same,MCC,[13],> 400 µg/mL
same,MIC,Oryctolagus cuniculus [14],> 400 mg/L
O=c1ccn([C@@H]2O[C@H](CO)[C@H](O)[C@@H]2O)c(=O)[nH]1,MIC,Vero [1],> 100 mg/L
same,MIC,Vero [2],> 400 mg/L
same,MIC,Vero [3],> 400 mg/L
same,MCC,WI-38 [4],> 400 µg/mL
same,MCC,HeLa [5],> 400 µg/mL
same,MIC,WI-38 [6],100 mg/L
same,MIC,Vero [7],> 400 mg/L
same,MCC,Vero [8],> 400 µg/mL
same,MIC,Vero [9],> 400 mg/L
same,MIC,WI-38 [10],> 400 mg/L
same,MIC,Oryctolagus cuniculus [11],> 400 mg/L
same,MIC,HeLa [12],> 400 mg/L
same,MCC,[13],> 400 µg/mL
same,MIC,Oryctolagus cuniculus [14],> 400 mg/L
Nc1ccn([C@@H]2O[C@H](CO)[C@H](O)[C@@H]2O)c(=O)n1,MIC,Vero [1],> 200 mg/L
same,MIC,Vero [2],> 100 mg/L
same,MIC,Vero [3],> 200 mg/L
same,MCC,WI-38 [4],> 200 µg/mL
same,MCC,HeLa [5],> 200 µg/mL
same,MIC,WI-38 [6],> 200 mg/L
same,MIC,Vero [7],> 200 mg/L
same,MIC,Oryctolagus cuniculus [15],70 mg/L
same,MCC,Vero [8],> 200 µg/mL
same,MIC,Vero [9],> 100 mg/L
same,MIC,WI-38 [10],> 200 mg/L
same,MIC,Oryctolagus cuniculus [11],> 200 mg/L
same,MIC,HeLa [12],> 200 mg/L
same,MCC,[13],> 200 µg/mL
same,MIC,Oryctolagus cuniculus [14],> 200 mg/L
